In the supplement of paper PMC10307832:

Experiments:
Assay in all cases: relative viability (nuclei count vs DMSO), 5 days (fraction); higher = more cells survive
Shikonin + Pictilisib = compound: CC(C)=CC[C@@H](O)C1=CC(=O)c2c(O)ccc(O)c2C1=O [Shikonin] + CS(=O)(=O)N1CCN(Cc2cc3nc(-c4cccc5[nH]ncc45)nc(N4CCOCC4)c3s2)CC1 [Pictilisib] (partner 1 µM)
Procedure, shortened: (§1)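 After 5 days of treatment, lung cancer cells in 1536-well plates were fixed and stained in a single step (final 0.05% Triton X-100, 1% formaldehyde, 1 ug/ml Hoechst) and their nuclei counted on 4× images. Treatment had been applied by pin tool the day after seeding as one drug alone or as a fixed anchor-drug dose with five library-drug doses (not always all listed) in √10 steps. Relative viability is the nuclei count of treated wells divided by that of vehicle wells, and values are medians of duplicate plates.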

[1] = compound: CC(C)N(CCCNC(=O)Nc1ccc(C(C)(C)C)cc1)C[C@H]1O[C@@H](n2ccc3c(N)ncnc32)[C@H](O)[C@@H]1O + COc1cc2c(Oc3ccc(NC(=O)C4(C(=O)Nc5ccc(F)cc5)CC4)cc3F)ccnc2cc1OCCCN1CCOCC1 [Foretinib] (partner 0.25 µM)
Procedure, shortened: as §1

[2] = compound: CC(C)N(CCCNC(=O)Nc1ccc(C(C)(C)C)cc1)C[C@H]1O[C@@H](n2ccc3c(N)ncnc32)[C@H](O)[C@@H]1O + N=C(N)NC(=N)NCCc1ccccc1 [Phenformin] (partner 250 µM)
Procedure, shortened: as §1

[3] = compound: CC(C)N(CCCNC(=O)Nc1ccc(C(C)(C)C)cc1)C[C@H]1O[C@@H](n2ccc3c(N)ncnc32)[C@H](O)[C@@H]1O + Nc1nc2[nH]cc(CCc3ccc(C(=O)N[C@@H](CCC(=O)O)C(=O)O)cc3)c2c(=O)[nH]1 [Pemetrexed] (partner 0.2 µM)
Procedure, shortened: as §1

UMC-11
relative viability (Shikonin + Pictilisib; first compound 0.01 µM): 0.736 | relative viability (Shikonin + Pictilisib; first compound 0.1 µM): 0.999 | relative viability (Shikonin + Pictilisib; first compound 0.3162 µM): 0.76 | relative viability (Shikonin + Pictilisib; first compound 1 µM): 0.97 | relative viability ([1]; first compound 0.08 µM): 0.979 | relative viability ([1]; first compound 0.253 µM): 0.984 | relative viability ([1]; first compound 0.8 µM): 1.06 | relative viability ([1]; first compound 2.53 µM): 0.975 | relative viability ([1]; first compound 8 µM): 1.02 | relative viability ([2]; first compound 0.08 µM): 0.321 | relative viability ([2]; first compound 0.253 µM): 0.302 | relative viability ([2]; first compound 0.8 µM): 0.296 | relative viability ([2]; first compound 2.53 µM): 0.349 | relative viability ([2]; first compound 8 µM): 0.322 | relative viability ([3]; first compound 0.08 µM): 0.803 | relative viability ([3]; first compound 0.253 µM): 0.748 | relative viability ([3]; first compound 0.8 µM): 0.791 | relative viability ([3]; first compound 2.53 µM): 0.79 | relative viability ([3]; first compound 8 µM): 0.806
